Experimental data published in ChEMBL document CHEMBL3046063, “Synthesis and antimicrobial activity of 5-chloroindoline-2,3-dione derivatives” (2012).
Values after ≈ are worked out from the molar mass of the structure shown.

How the values were obtained:
Format in all cases: functional
Alternaria alternata = assay: Antimicrobial activity against Alternaria alternata ATCC 66868 after 24 hr by broth dilution method; details: ATCC 66868, 24 h
Klebsiella pneumoniae = assay: Antimicrobial activity against Klebsiella pneumoniae ATCC 13883 after 24 hr by broth dilution method; details: ATCC 13883, 24 h
Pseudomonas aeruginosa = assay: Antimicrobial activity against Pseudomonas aeruginosa ATCC 10145 after 24 hr by broth dilution method; details: ATCC 10145, 24 h
Proteus mirabilis = assay: Antimicrobial activity against Proteus mirabilis ATCC 49565 after 24 hr by broth dilution method; details: ATCC 49565, 24 h
Escherichia coli = assay: Antimicrobial activity against Escherichia coli ATCC 25922 after 24 hr by broth dilution method; details: ATCC 25922, 24 h
Aspergillus awamori = assay: Antimicrobial activity against Aspergillus awamori ATCC 22342 after 24 hr by broth dilution method; details: ATCC 22342, 24 h
[1] = test system: Staphylococcus epidermidis; assay: Antimicrobial activity against Staphylococcus epidermidis ATCC 12228 after 24 hr by broth dilution method; details: ATCC 12228, 24 h
Microsporum canis = assay: Antimicrobial activity against Arthroderma otae ATCC 11622 after 24 hr by broth dilution method; details: ATCC 11622, 24 h
Staphylococcus hominis = assay: Antimicrobial activity against Staphylococcus hominis ATCC 27844 after 24 hr by broth dilution method; details: ATCC 27844, 24 h
Candida albicans = assay: Antimicrobial activity against Candida albicans ATCC 10231 after 24 hr by broth dilution method; details: ATCC 10231, 24 h
Proteus vulgaris = assay: Antimicrobial activity against Proteus vulgaris ATCC 13315 after 24 hr by broth dilution method; details: ATCC 13315, 24 h
Bacillus spizizenii = assay: Antimicrobial activity against Bacillus subtilis subsp. spizizenii ATCC 6633 after 24 hr by broth dilution method; details: ATCC 6633, 24 h
Micrococcus luteus = assay: Antimicrobial activity against Micrococcus luteus ATCC 4698 after 24 hr by broth dilution method; details: ATCC 4698, 24 h
Trichoderma viride = assay: Antimicrobial activity against Hypocrea rufa ATCC 52440 after 24 hr by broth dilution method; details: ATCC 52440, 24 h
Aspergillus fumigatus = assay: Antimicrobial activity against Aspergillus fumigatus after 24 hr by broth dilution method
Bacillus pumilus = assay: Antimicrobial activity against Bacillus pumilus ATCC 14884 after 24 hr by broth dilution method; details: ATCC 14884, 24 h
Salmonella typhi = assay: Antimicrobial activity against Salmonella enterica subsp. enterica serovar Typhi ATCC 19430 after 24 hr by broth dilution method; details: ATCC 19430, 24 h
Staphylococcus aureus = assay: Antimicrobial activity against Staphylococcus aureus ATCC 25923 after 24 hr by broth dilution method; details: ATCC 25923, 24 h
Rhizoctonia solani = assay: Antimicrobial activity against Rhizoctonia solani ATCC 76131 after 24 hr by broth dilution method; details: ATCC 76131, 24 h
Bacillus cereus = assay: Antimicrobial activity against Bacillus cereus ATCC 11778 after 24 hr by broth dilution method; details: ATCC 11778, 24 h
Trichophyton longifusum = assay: Antimicrobial activity against Trichophyton longifusum ATCC 22397 after 24 hr by broth dilution method; details: ATCC 22397, 24 h
Aspergillus niger = assay: Antimicrobial activity against Aspergillus niger ATCC 9142 after 24 hr by broth dilution method; details: ATCC 9142, 24 h
Fusarium solani = assay: Antimicrobial activity against Fusarium solani ATCC 38136 after 24 hr by broth dilution method; details: ATCC 38136, 24 h
Aspergillus flavus = assay: Antimicrobial activity against Aspergillus flavus ATCC 15517 after 24 hr by broth dilution method; details: ATCC 15517, 24 h

| Structure (SMILES) | MIC (Alternaria alternata) [µg/mL] | MIC (Klebsiella pneumoniae) [µg/mL] | MIC (Pseudomonas aeruginosa) [µg/mL] | MIC (Proteus mirabilis) [µg/mL] | MIC (Escherichia coli) [µg/mL] | MIC (Aspergillus awamori) [µg/mL] | MIC [1] [µg/mL] | MIC (Microsporum canis) [µg/mL] | MIC (Staphylococcus hominis) [µg/mL] | MIC (Candida albicans) [µg/mL] | MIC (Proteus vulgaris) [µg/mL] | MIC (Bacillus spizizenii) [µg/mL] | MIC (Micrococcus luteus) [µg/mL] | MIC (Trichoderma viride) [µg/mL] | MIC (Aspergillus fumigatus) [µg/mL] | MIC (Bacillus pumilus) [µg/mL] | MIC (Salmonella typhi) [µg/mL] | MIC (Staphylococcus aureus) [µg/mL] | MIC (Rhizoctonia solani) [µg/mL] | MIC (Bacillus cereus) [µg/mL] | further results |
| --- | --- | --- | --- | --- | --- | --- | --- | --- | --- | --- | --- | --- | --- | --- | --- | --- | --- | --- | --- | --- | --- |
| O=C1Nc2ccc(Cl)cc2/C1=N/N1C(=O)CSC1c1ccccc1 (centres undefined) | 37.5 (≈ 105 µM) | 37.5 (≈ 105 µM) | 37.5 (≈ 105 µM) | 75 (≈ 210 µM) | 37.5 (≈ 105 µM) | 18.8 (≈ 52.4 µM) | 37.5 (≈ 105 µM) | 37.5 (≈ 105 µM) | 75 (≈ 210 µM) | 9.37 (≈ 26.2 µM) | 75 (≈ 210 µM) | 75 (≈ 210 µM) | 37.5 (≈ 105 µM) | 37.5 (≈ 105 µM) | 18.8 (≈ 52.4 µM) | 75 (≈ 210 µM) | 75 (≈ 210 µM) | 37.5 (≈ 105 µM) | 37.5 (≈ 105 µM) | 37.5 (≈ 105 µM) | MIC (Trichophyton longifusum): 18.8 µg/mL (≈ 52.4 µM); MIC (Aspergillus niger): 18.8 µg/mL (≈ 52.4 µM); MIC (Fusarium solani): 18.8 µg/mL (≈ 52.4 µM); MIC (Aspergillus flavus): 37.5 µg/mL (≈ 105 µM) |
| O=C1Nc2ccc(Cl)cc2/C1=N/N1C(=O)C(Cl)C1c1ccccc1Cl (centres undefined) | 150 (≈ 380 µM) | 300 (≈ 760 µM) | 300 (≈ 760 µM) | 300 (≈ 760 µM) | 150 (≈ 380 µM) | 150 (≈ 380 µM) | 150 (≈ 380 µM) | 75 (≈ 190 µM) | 300 (≈ 760 µM) | 75 (≈ 190 µM) | 150 (≈ 380 µM) | 150 (≈ 380 µM) | 150 (≈ 380 µM) | 150 (≈ 380 µM) | 150 (≈ 380 µM) | 300 (≈ 760 µM) | 300 (≈ 760 µM) | 300 (≈ 760 µM) | 150 (≈ 380 µM) | 300 (≈ 760 µM) | MIC (Trichophyton longifusum): 150 µg/mL (≈ 380 µM); MIC (Aspergillus niger): 150 µg/mL (≈ 380 µM); MIC (Fusarium solani): 150 µg/mL (≈ 380 µM); MIC (Aspergillus flavus): 150 µg/mL (≈ 380 µM) |
| Clc1ccccc1C(c1ccccc1)(c1ccccc1)n1ccnc1 [CLOTRIMAZOLE] | 2.34 (≈ 6.79 µM) |  |  |  |  | 2.34 (≈ 6.79 µM) |  | 1.17 (≈ 3.39 µM) |  | 0.58 (≈ 1.68 µM) |  |  |  | 1.17 (≈ 3.39 µM) | 2.34 (≈ 6.79 µM) |  |  |  | 1.17 (≈ 3.39 µM) |  | MIC (Trichophyton longifusum): 2.34 µg/mL (≈ 6.79 µM); MIC (Aspergillus niger): 2.34 µg/mL (≈ 6.79 µM); MIC (Fusarium solani): 1.17 µg/mL (≈ 3.39 µM); MIC (Aspergillus flavus): 2.34 µg/mL (≈ 6.79 µM) |
| CN(C)c1ccc(C2SCC(=O)N2/N=C2\C(=O)Nc3ccc(Cl)cc32)cc1 (centres undefined) | 4.68 (≈ 11.7 µM) | 18.8 (≈ 46.8 µM) | 18.8 (≈ 46.8 µM) | 9.37 (≈ 23.4 µM) | 18.8 (≈ 46.8 µM) | 9.37 (≈ 23.4 µM) | 18.8 (≈ 46.8 µM) | 9.37 (≈ 23.4 µM) | 9.37 (≈ 23.4 µM) | 9.37 (≈ 23.4 µM) | 18.8 (≈ 46.8 µM) | 18.8 (≈ 46.8 µM) | 18.8 (≈ 46.8 µM) | 4.68 (≈ 11.7 µM) | 4.68 (≈ 11.7 µM) | 9.37 (≈ 23.4 µM) | 9.37 (≈ 23.4 µM) | 9.37 (≈ 23.4 µM) | 4.68 (≈ 11.7 µM) | 18.8 (≈ 46.8 µM) | MIC (Trichophyton longifusum): 4.68 µg/mL (≈ 11.7 µM); MIC (Aspergillus niger): 4.68 µg/mL (≈ 11.7 µM); MIC (Fusarium solani): 4.68 µg/mL (≈ 11.7 µM); MIC (Aspergillus flavus): 4.68 µg/mL (≈ 11.7 µM) |
| O=C(O)c1cn(C2CC2)c2cc(N3CCNCC3)c(F)cc2c1=O [CIPROFLOXACIN] |  | 4.7 (≈ 14.2 µM) | 4.7 (≈ 14.2 µM) | 4.7 (≈ 14.2 µM) | 4.7 (≈ 14.2 µM) |  | 4.7 (≈ 14.2 µM) |  | 4.7 (≈ 14.2 µM) |  | 4.7 (≈ 14.2 µM) | 4.7 (≈ 14.2 µM) | 4.7 (≈ 14.2 µM) |  |  | 4.7 (≈ 14.2 µM) | 4.7 (≈ 14.2 µM) | 4.7 (≈ 14.2 µM) |  | 4.7 (≈ 14.2 µM) |  |
| O=C1Nc2ccc(Cl)cc2/C1=N/N1C(=O)CSC1c1ccccc1O (centres undefined) | 75 (≈ 201 µM) | 300 (≈ 803 µM) | 300 (≈ 803 µM) | 300 (≈ 803 µM) | 300 (≈ 803 µM) | 150 (≈ 401 µM) | 300 (≈ 803 µM) | 75 (≈ 201 µM) | 150 (≈ 401 µM) | 75 (≈ 201 µM) | 150 (≈ 401 µM) | 150 (≈ 401 µM) | 150 (≈ 401 µM) | 150 (≈ 401 µM) | 150 (≈ 401 µM) | 150 (≈ 401 µM) | 150 (≈ 401 µM) | 300 (≈ 803 µM) | 150 (≈ 401 µM) | 150 (≈ 401 µM) | MIC (Trichophyton longifusum): 150 µg/mL (≈ 401 µM); MIC (Aspergillus niger): 150 µg/mL (≈ 401 µM); MIC (Fusarium solani): 150 µg/mL (≈ 401 µM); MIC (Aspergillus flavus): 75 µg/mL (≈ 201 µM) |
| O=C1Nc2ccc(Cl)cc2/C1=N/N1C(=O)C(Cl)C1c1ccco1 (centres undefined) | 37.5 (≈ 107 µM) | 75 (≈ 214 µM) | 37.5 (≈ 107 µM) | 37.5 (≈ 107 µM) | 37.5 (≈ 107 µM) | 37.5 (≈ 107 µM) | 75 (≈ 214 µM) | 37.5 (≈ 107 µM) | 37.5 (≈ 107 µM) | 18.8 (≈ 53.5 µM) | 37.5 (≈ 107 µM) | 75 (≈ 214 µM) | 37.5 (≈ 107 µM) | 37.5 (≈ 107 µM) | 18.8 (≈ 53.5 µM) | 37.5 (≈ 107 µM) | 75 (≈ 214 µM) | 37.5 (≈ 107 µM) | 37.5 (≈ 107 µM) | 37.5 (≈ 107 µM) | MIC (Trichophyton longifusum): 18.8 µg/mL (≈ 53.5 µM); MIC (Aspergillus niger): 18.8 µg/mL (≈ 53.5 µM); MIC (Fusarium solani): 37.5 µg/mL (≈ 107 µM); MIC (Aspergillus flavus): 37.5 µg/mL (≈ 107 µM) |
